Here are results for three compounds from patent publication US20160046616A1, “NRF2 SMALL MOLECULE INHIBITORS FOR CANCER THERAPY” (THE JOHNS HOPKINS UNIVERSITY, priority 2013, published 2016).

Data set [1] has as its system osteosarcoma cells. Kind of data set: Clonogenic assay in osteosarcoma cells. In kind it is cell-based. Conditions: for Growth of osteosarcoma cells, single agent: single agents. As for the experimental part:
(§1) For the clonogenic assays, 1,000 cells/well were plated in a 6-well plate. The next day, the cells were treated with vehicle (DMSO), Nrf2 inhibitor, a chemotherapeutic drug, or a combination of Nrf2 and chemotherapeutic drugs for 48 hrs. The drug containing media was then replaced with regular growth media and the cells were incubated for an additional 10 days. At the end of incubation period, the colonies were stained with Crystal Violet and imaged.

The test system of data set [2] is H460 xenograft tumors. Kind of data set: H460 lung cancer xenograft assay (flank). In kind it is in vivo, athymic nude mice. Conditions: for Growth of H460 xenograft tumors, combination with carboplatin / Growth of H460 xenograft tumors, single agent: nude mice. How it is done:
For each group, pretreatment available lung volume was defined as 100% and compared with post-treatment lung volumes.
A549 cells were injected in the flanks of athymic nude mice and once tumor volume reached 50-100 mm^3, treatment was initiated. Vehicle, carboplatin (20 mg/kg; 2 days/week), compound#1 (20 mg/kg 4 days/week) or a combination of compound 1 and carboplatin was administered for four weeks. Values represent tumor volume ±s.e.m. for all groups. […] Tumors were excised and weight at the end of treatment period. […] H460 cells were injected in the flanks of athymic nude mice and once tumor volume reached 50-100 mm^3, treatment was initiated. Vehicle, carboplatin (10 mg/kg; 5 days/week), compound 1 (30 mg/kg 5 days/week) or a combination of compound 1 and carboplatin was administered for three weeks. Values represent tumor volume ±s.e.m.;
For the H460 lung cancer xenograft assay, two million cells in 100 μL of PBS were implanted in the flank of nude mice. One week post cell implantation, when the tumors were about 50 to 100 mm^3 in dimension, the mice were randomly divided into four groups: vehicle, chemotherapeutic drug, Nrf2 inhibitor and chemotherapeutic drug with an Nrf2 inhibitor. The mice were treated with the drugs for 2 to 4 weeks. Tumor volume was recorded biweekly.

Data set [3] concerns A549 lung cancer cells. Description: Clonogenic assay in A549 lung cancer cells. It counts as cell-based. Conditions: combination with chemotherapeutic drug. How it is done: For the clonogenic assay, exponentially growing cells were counted, diluted, and seeded in triplicate at 1,000 cells/well in a 6-well plate. Cells were incubated for 24 h in a humidified CO2 incubator at 37° C., and exposed to drugs or vehicle for 48 h. The chemotherapeutic drugs, etoposide, cisplatin, or carboplatin were added to some of the samples to see the effect of the drug in the presence and absence of the small inhibitors of Nrf2. After the treatment period, the drug containing media was replaced with complete growth media. To assess clonogenic survival following the drug treatment, A549 cells from a type of non-small cell lung cancer cell line were incubated in complete growth medium at 37° C. for 10-14 days and then stained with 50% methanol-crystal violet solution. Only colonies with more than 50 cells were counted (final concentration of DMSO in the growth media was 0.1%).
as §1

The test system of data set [4] is pancreatic cancer cells (MiaPaCa). Kind of data set: Clonogenic assay in MiaPaCa pancreatic cancer cells. In kind it is cell-based. Conditions: for Growth of MiaPaCa cells, combination with gemcitabine: gemcitabine (10 nM in figure legends). How it is done: (A-B) Panc1 and MiaPaCa cells were treated gemcitabine (10 nM) singly or in combination with compound 1 for 72 h. At the end of treatment, regular growth media was added and cells were further incubated for 8-10 days and stained with crystal violet;
as §1

Data set [5] concerns H838 NRF2-ARE-Fluc stable cell line. Description: H838 Nrf2 assay: NRF2-ARE firefly luciferase reporter gene assay. It counts as cell-based. Conditions: Homo sapiens, NCI-H838, read-out: Potency of inhibition, H838. The text has this:
H838 is a NSCLC cell line with LOF Keap1 activity and constitutive translocation of NRF2 into the nucleus. A firefly luciferase reporter construct driven by a minimal promoter of NRF2-specific ARE is stably expressed in the H838 cells. This cell line was used as a confirmation assay to make sure hits identified from primary screening and that passed counterscreen assays worked in different cell types with a constitutively active NRF2 pathway (deficiency in Keap1).
This assay was very similar to the primary assay except that the cell line was changed. […] The final concentration of DMSO was maintained at 0.46%. Control compounds Budesonide and Staurosporine were both added at a concentration of 2 mM and Budesonide was also added as a 1:10 titration, starting at 200 μM, to achieve dose-response. After an 18-24 hour incubation at 37° C., 95% humidity, and 5% CO2, 1 μL of 5× CellTiter-Fluor non-lytic cell viability assay reagent (Promega, Madison Wis.) was added into the each well of the plates. The plates were then incubated for 30 minutes at room temperature before they were read on a ViewLux plate imager (Perkin Elmer, Waltham Mass.) using an excitation wavelength of 405 nm and an emission wavelength of 525 nm.
Representative compounds were assayed to assess the potency of inhibition in an A549 NRF2-ARE-Fluc stable cell line (A549 Nrf2 assay), in an H838 NRF2-ARE-Fluc stable cell line (H838 Nrf2 assay), and in an H1437 NRF2-ARE-Fluc stable cell line (H1437 Nrf2 assay) (see Table 3).
In general terms: In a reporter assay the amount or activity of a reporter protein is the signal.

Structures are written as SMILES. Entries after “also recorded” stand apart in the source; their conditions may differ.

As to `O=C(Nc1ncc(Cc2ccc(C(F)(F)F)cc2)s1)c1ccc(-c2cccc([N+](=O)[O-])c2)o1` [Compound 1], in data set [1], the “Growth of osteosarcoma cells, combination with doxorubicin” value (“Growth … with doxorubicin” below) is reported as “suppressed the growth of osteosarcoma cells” and the “Growth of osteosarcoma cells, single agent” value is on record as “suppressed the growth of osteosarcoma cells”. In addition, the “Growth of H460 xenograft tumors, combination with carboplatin” value (shortened to “Growth … with carboplatin”) in data set [2] is recorded as “shows anti-tumor efficacy in combination with carboplatin”. Further, the “Cytotoxicity of chemotherapeutic drugs in combination with the compound, clonogenic assay” value (from here on “Cytotoxicity of chemotherapeutic drugs”) in data set [3] is “more effective in combination with a chemotherapeutic drug”. For the same compound, in data set [4], the “Growth of MiaPaCa cells, single agent” value is reported as “suppressed the growth of two different pancreatic cell lines” and the “Growth of MiaPaCa cells, combination with gemcitabine” value (“Growth of MiaPaCa cells, combination” for short) is “enhance the cytotoxicity of gemcitabine; also recorded: potentiates the cytotoxicity of standard care chemotherapy drugs (gemcitabine)”. Further, in data set [5], the IC50 was under 5 µM.
For the compound `Cc1ccccc1C(=O)N1CCc2cc(-c3nc(NC(=O)Cc4ccc5c(c4)OCO5)sc3C)ccc21` [compound 4], in data set [1], the “Growth … with doxorubicin” value was “suppressed the growth of osteosarcoma cells” and the “Growth of osteosarcoma cells, single agent” value is “suppressed the growth of osteosarcoma cells”. The “Growth … with carboplatin” value in data set [2] is given as “sensitized H460 lung tumors to carboplatin drug therapy”. In data set [2] (listed as ML385), the “Growth … with carboplatin” value was “significant reduction in tumor volume and weight”. In data set [2] (single agent), the “Growth of H460 xenograft tumors, single agent” value was “significant reduction in tumor volume and weight”; the “Efficacy of compound alone relative to carboplatin, H460 tumors” value is “comparable to carboplatin”. Besides, the “Cytotoxicity of chemotherapeutic drugs” value in data set [3] is reported as “more effective in combination with a chemotherapeutic drug; also recorded: potentiates the toxicity of standard care chemotherapy drugs”. Besides, in data set [4], the “Growth of MiaPaCa cells, single agent” value was “suppressed the growth of two different pancreatic cell lines; also recorded: significant growth inhibitory activity as single agent” and the “Growth of MiaPaCa cells, combination” value is “enhance the cytotoxicity of gemcitabine; also recorded: potentiates the cytotoxicity of standard care chemotherapy drugs (gemcitabine)”. In addition, the IC50 in data set [5] is 5 to 25 µM.
On to `CC1(C)CC2CC(C)(CN2S(=O)(=O)c2ccc(C(=O)Nc3ccc(Cl)c(S(=O)(=O)N4CCOCC4)c3)cc2)C1` (stereo not shown) [compound 3], for which, in data set [1], the “Growth … with doxorubicin” value was “suppressed the growth of osteosarcoma cells” and the “Growth of osteosarcoma cells, single agent” value is “suppressed the growth of osteosarcoma cells”. Further, the “Growth … with carboplatin” value in data set [2] is reported as “inhibited the growth”. The “Growth of H460 xenograft tumors, single agent” value in data set [2] (single agent) is on record as “inhibited the growth”. The “Cytotoxicity of chemotherapeutic drugs” value in data set [3] was “enhance the cytotoxicity of standard care chemotherapeutic drugs”. In data set [4], the “Growth of MiaPaCa cells, single agent” value is “suppressed the growth of two different pancreatic cell lines; also recorded: significant growth inhibitory effect as a single agent” and the “Growth of MiaPaCa cells, combination” value was “enhance the cytotoxicity of gemcitabine”. Further, the IC50 in data set [5] is under 5 µM.
